# Test results: ChEMBL document CHEMBL1142525, “Molecular probes for imaging myelinated white matter in CNS” (J Med Chem, 2008)
# Activity calls are given as the source filed them. The calls are words filed in the database; no cut-off is given here.
# Experiments:
# [1] = Displacement of [3H]BMB from Sprague-Dawley rat brain myelin fractions; assay type: tissue-based
# [2] = Partition coefficient, log P in 1-octanol/phosphate buffer at pH 7.40; assay type: physicochemical; conditions: pH 7.4
# Brain [3] = assay: Drug uptake in Swiss Webster mouse brain at 0.185 MBq, iv after 30 mins; assay type: ADME, organism-based; conditions: in vivo, 0.5 h
# Brain [4] = assay: Drug uptake in Swiss Webster mouse brain at 0.185 MBq, iv after 120 mins; assay type: ADME, organism-based; conditions: in vivo, 2 h
# Brain [5] = assay: Drug uptake in Swiss Webster mouse brain at 0.185 MBq, iv after 60 mins; assay type: ADME, organism-based; conditions: in vivo, 1 h
# Rattus norvegicus = organism: Rattus norvegicus; assay: Binding affinity to Sprague-Dawley rat brain myelin fractions at 12.5 uM after 1 hr by UV spectrophotometry
Ki [1],Activity (Rattus norvegicus),Structure (SMILES),other results
494 nM,,Nc1ccc(/C=C/c2ccc(I)cc2)cc1,
,,Nc1ccc(/C=C/c2ccc([125I])cc2)cc1,logD [2]: 2.5; Drug uptake (Brain [3]): 2.65 % ID/g; Drug uptake (Brain [4]): 1.12 % ID/g; Drug uptake (Brain [5]): 2.05 % ID/g
119 nM,Active,CN(C)c1ccc(/C=C/c2ccc(N)cc2)cc1,
126 nM,Active,CNc1ccc(/C=C/c2ccc(N)cc2)cc1,
370 nM,,Nc1ccc(/C=C/c2ccc(N)cc2)cc1,
